Active and inactive are the calls of the source. No rule for the calls is given here.
System: CCRIS mutagenicity, Ames/micronucleus/aberration tests
Experiment: CCRIS mutagenicity studies

Measured: mutagenic call

CCCCCCCCCc1ccc(O)cc1
inactive: Test System: AMES SALMONELLA TYPHIMURIUM, Strain/Indicator: TA97, Metabolic Activation: NONE, Method: PREINCUBATION inactive; negative | Test System: AMES SALMONELLA TYPHIMURIUM, Strain/Indicator: TA97, Metabolic Activation: S-9, Method: PREINCUBATION inactive; negative | Test System: AMES SALMONELLA TYPHIMURIUM, Strain/Indicator: TA98, Metabolic Activation: RAT, LIVER, S-9, KC 500, Method: PREINCUBATION inactive; negative | Test System: AMES SALMONELLA TYPHIMURIUM, Strain/Indicator: TA98, Metabolic Activation: RAT, LIVER, S-9, SODIUM PHENOBARBITAL AND 5,6-BENZOFLAVONE, Method: PREINCUBATION inactive; negative | Test System: AMES SALMONELLA TYPHIMURIUM, Strain/Indicator: TA98, Metabolic Activation: S-9, Method: PREINCUBATION inactive; negative | Test System: AMES SALMONELLA TYPHIMURIUM, Strain/Indicator: TA100, Metabolic Activation: RAT, LIVER, S-9, KC 500, Method: PREINCUBATION inactive; negative | Test System: AMES SALMONELLA TYPHIMURIUM, Strain/Indicator: TA100, Metabolic Activation: RAT, LIVER, S-9, SODIUM PHENOBARBITAL AND 5,6-BENZOFLAVONE, Method: PREINCUBATION inactive; negative | Test System: AMES SALMONELLA TYPHIMURIUM, Strain/Indicator: TA100, Metabolic Activation: S-9, Method: PREINCUBATION inactive; negative | Test System: AMES SALMONELLA TYPHIMURIUM, Strain/Indicator: TA102, Metabolic Activation: RAT, LIVER, S-9, SODIUM PHENOBARBITAL AND 5,6-BENZOFLAVONE, Method: PREINCUBATION inactive; negative | Test System: AMES SALMONELLA TYPHIMURIUM, Strain/Indicator: TA102, Metabolic Activation: S-9, Method: PREINCUBATION inactive; negative | Test System: AMES SALMONELLA TYPHIMURIUM, Strain/Indicator: TA104, Metabolic Activation: NONE, Method: PREINCUBATION inactive; negative | Test System: AMES SALMONELLA TYPHIMURIUM, Strain/Indicator: TA104, Metabolic Activation: RAT, LIVER, S-9, SODIUM PHENOBARBITAL AND 5,6-BENZOFLAVONE, Method: PREINCUBATION inactive; negative | Test System: AMES SALMONELLA TYPHIMURIUM, Strain/Indicator: TA104, Metabolic Activation: S-9, Method: PREINCUBATION inactive; negative | Test System: AMES SALMONELLA TYPHIMURIUM, Strain/Indicator: TA1535, Metabolic Activation: NONE, Method: PREINCUBATION inactive; negative | Test System: AMES SALMONELLA TYPHIMURIUM, Strain/Indicator: TA1535, Metabolic Activation: RAT, LIVER, S-9, KC 500, Method: PREINCUBATION inactive; negative | Test System: AMES SALMONELLA TYPHIMURIUM, Strain/Indicator: TA1535, Metabolic Activation: RAT, LIVER, S-9, SODIUM PHENOBARBITAL AND 5,6-BENZOFLAVONE, Method: PREINCUBATION inactive; negative | Test System: AMES SALMONELLA TYPHIMURIUM, Strain/Indicator: TA1537, Metabolic Activation: NONE, Method: PREINCUBATION inactive; negative | Test System: AMES SALMONELLA TYPHIMURIUM, Strain/Indicator: TA1537, Metabolic Activation: RAT, LIVER, S-9, KC 500, Method: PREINCUBATION inactive; negative | Test System: AMES SALMONELLA TYPHIMURIUM, Strain/Indicator: TA1537, Metabolic Activation: RAT, LIVER, S-9, SODIUM PHENOBARBITAL AND 5,6-BENZOFLAVONE, Method: PREINCUBATION inactive; negative | Test System: AMES SALMONELLA TYPHIMURIUM, Strain/Indicator: TA1538, Metabolic Activation: NONE, Method: PREINCUBATION inactive; negative | Test System: AMES SALMONELLA TYPHIMURIUM, Strain/Indicator: TA1538, Metabolic Activation: RAT, LIVER, S-9, KC 500, Method: PREINCUBATION inactive; negative | Test System: E. COLI, Strain/Indicator: WP2UVRA/PKM101, Metabolic Activation: NONE, Method: PREINCUBATION inactive; negative | Test System: E. COLI, Strain/Indicator: WP2UVRA/PKM101, Metabolic Activation: RAT, LIVER, S-9, SODIUM PHENOBARBITAL AND 5,6-BENZOFLAVONE, Method: PREINCUBATION inactive; negative | Test System: E. COLI, Strain/Indicator: WP2 UVRA, Metabolic Activation: NONE, Method: PREINCUBATION inactive; negative | Test System: E. COLI, Strain/Indicator: WP2UVRA, Metabolic Activation: NONE, Method: PREINCUBATION inactive; negative | Test System: E. COLI, Strain/Indicator: WP2 UVRA, Metabolic Activation: RAT, LIVER, S-9, KC 500, Method: PREINCUBATION inactive; negative | Test System: E. COLI, Strain/Indicator: WP2UVRA, Metabolic Activation: RAT, LIVER, S-9, SODIUM PHENOBARBITAL AND 5,6-BENZOFLAVONE, Method: PREINCUBATION inactive; negative

Cc1ccc(C(C)(C)C)c(O)c1C(O)c1ncc([N+](=O)[O-])n1C (configuration not stated)
inactive: Test System: AMES SALMONELLA TYPHIMURIUM, Strain/Indicator: TA98, Metabolic Activation: NONE, Method: STANDARD PLATE inactive; negative | Test System: AMES SALMONELLA TYPHIMURIUM, Strain/Indicator: TA 98, Metabolic Activation: RAT, LIVER, S-9, AROCLOR 1254, Method: STANDARD PLATE inactive; negative | Test System: AMES SALMONELLA TYPHIMURIUM, Strain/Indicator: TA100, Metabolic Activation: NONE, Method: STANDARD PLATE inactive; negative | Test System: AMES SALMONELLA TYPHIMURIUM, Strain/Indicator: TA100, Metabolic Activation: RAT, LIVER, S-9, AROCLOR 1254, Method: STANDARD PLATE inactive; negative | Test System: AMES SALMONELLA TYPHIMURIUM, Strain/Indicator: TA1535, Metabolic Activation: NONE, Method: STANDARD PLATE inactive; negative | Test System: AMES SALMONELLA TYPHIMURIUM, Strain/Indicator: TA1535, Metabolic Activation: RAT, LIVER, S-9, AROCLOR 1254, Method: STANDARD PLATE inactive; negative | Test System: AMES SALMONELLA TYPHIMURIUM, Strain/Indicator: TA1537, Metabolic Activation: NONE, Method: STANDARD PLATE inactive; negative | Test System: AMES SALMONELLA TYPHIMURIUM, Strain/Indicator: TA1537, Metabolic Activation: RAT, LIVER, S-9, AROCLOR 1254, Method: STANDARD PLATE inactive; negative | Test System: AMES SALMONELLA TYPHIMURIUM, Strain/Indicator: TA1538, Metabolic Activation: NONE, Method: STANDARD PLATE inactive; negative | Test System: AMES SALMONELLA TYPHIMURIUM, Strain/Indicator: TA1538, Metabolic Activation: RAT, LIVER, S-9, AROCLOR 1254, Method: STANDARD PLATE inactive; negative
